Measured values taken from patent publication US7037500B1, “Method for using phagocytic particles and ATP receptors to deliver antigens to MHC class I receptors to induce immunity against microbial pathogens or tumors or to suppress immunity” (The Trustees of Columbia University in the City of New York, priority 2000, dated 2006).

Key:
P2X7 receptors = biological target: T1, P2X7 receptors (Mus musculus, UniProt Q9Z1M0); conditions: cited from earlier work
T1 sequence (Q9Z1M0 1-595): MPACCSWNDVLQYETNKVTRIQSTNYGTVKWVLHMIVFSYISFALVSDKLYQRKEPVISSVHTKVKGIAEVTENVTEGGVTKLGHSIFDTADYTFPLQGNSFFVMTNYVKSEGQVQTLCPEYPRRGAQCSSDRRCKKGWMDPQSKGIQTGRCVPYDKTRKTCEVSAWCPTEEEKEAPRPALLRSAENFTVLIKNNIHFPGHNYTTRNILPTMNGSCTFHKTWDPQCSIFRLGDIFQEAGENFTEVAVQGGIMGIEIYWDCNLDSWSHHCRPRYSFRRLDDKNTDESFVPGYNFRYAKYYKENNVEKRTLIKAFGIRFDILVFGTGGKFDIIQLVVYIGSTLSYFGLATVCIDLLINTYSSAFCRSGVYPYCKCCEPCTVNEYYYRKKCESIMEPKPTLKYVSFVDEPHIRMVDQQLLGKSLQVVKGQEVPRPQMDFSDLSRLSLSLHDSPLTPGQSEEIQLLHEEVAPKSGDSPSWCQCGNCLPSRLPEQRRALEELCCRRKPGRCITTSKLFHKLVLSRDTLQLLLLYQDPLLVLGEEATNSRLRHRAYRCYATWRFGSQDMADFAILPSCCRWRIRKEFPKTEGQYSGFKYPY

[1] = biological target: T2, P2X7 receptors of J774 cells (Mus musculus, UniProt Q9Z1M0); conditions: previous study (8); cited from earlier work
T2 construct: P2X7 receptors of J774 cells; endogenous in cells; host or cells: J774 macrophage-like cells
T2 sequence (Q9Z1M0 1-595): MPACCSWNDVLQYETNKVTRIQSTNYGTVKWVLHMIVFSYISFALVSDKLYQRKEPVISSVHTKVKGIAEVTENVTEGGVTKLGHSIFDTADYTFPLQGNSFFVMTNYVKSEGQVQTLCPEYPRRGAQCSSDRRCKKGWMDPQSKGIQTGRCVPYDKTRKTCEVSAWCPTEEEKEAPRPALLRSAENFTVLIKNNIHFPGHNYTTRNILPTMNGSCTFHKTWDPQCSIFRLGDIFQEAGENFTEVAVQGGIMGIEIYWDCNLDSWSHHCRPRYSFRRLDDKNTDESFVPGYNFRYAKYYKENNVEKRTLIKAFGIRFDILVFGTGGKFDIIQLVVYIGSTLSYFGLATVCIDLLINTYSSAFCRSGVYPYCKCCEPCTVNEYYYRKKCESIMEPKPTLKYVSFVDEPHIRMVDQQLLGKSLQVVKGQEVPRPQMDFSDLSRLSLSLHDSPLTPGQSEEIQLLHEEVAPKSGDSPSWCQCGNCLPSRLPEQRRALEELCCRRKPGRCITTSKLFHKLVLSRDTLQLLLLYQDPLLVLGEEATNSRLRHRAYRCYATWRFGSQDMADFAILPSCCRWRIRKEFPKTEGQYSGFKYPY

[2] = test system: Mouse bone marrow derived dendritic cells / isogenic spleen derived CD8 lymphocytes; test: CTL assay, 3H-thymidine uptake of CD8 lymphocytes co-incubated with treated dendritic cells; type: cell-based
Experimental: It is shown herein that if a peptide such as ovalbumin is loaded into the IgG opsonized red blood cell resealed ghosts and then incubated with mouse bone derived dendritic cells—the dendritic cells will present class I MHC and induce cytotoxic CD8 lymphocytes as measured by the capacity of these lymphocytes to proliferate in response to co-incubation of the dendritic cells with CD8 lymphocytes. (Table 1)
Table 1: Mouse Bone marrow derived dendritic cells prepared as described in FIG. 3 were incubated with the appropriate isogenic spleen derived CD8 lymphocytes for several hours and then the CTL response was assayed by radiolabeled thymidine incorporation into the lymphocytes indicating a proliferative response mediated via class I MHC.

Nc1ncnc2c1ncn2[C@@H]1O[C@H](COP(=O)(O)OP(=O)(O)OP(=O)(O)O)[C@@H](O)[C@H]1O [ATP^4−]
[ATP4-] needed to induce pore formation by P2X7 receptors (P2X7 receptors): > 130 µM

Cc1ccc(N(CC(=O)O)CC(=O)O)c(OCCOc2cc3cc(-c4ncc(C(=O)O)o4)oc3cc2N(CC(=O)O)CC(=O)O)c1 [fura 2]
penetration of plasma membrane pores formed by ATP4-activated P2X7 receptors [1]: penetrate plasma membrane pores

Soluble Ova peptide: soluble ovalbumin peptide (amino acids 257–264) (ESIINFEK; UniProt P01012 257-264, looked up, fragment)
CTL Assay- 3H-thymidine uptake (proliferation assay-cpm) ([2]; dendritic cells treated with 100 ng/ml): 90,000 cpm

B1: Soluble Ova protein: soluble ovalbumin protein (protein, UniProt P01012 2-386, looked up)
Ovalbumin: GSIGAASMEFCFDVFKELKVHHANENIFYCPIAIMSALAMVYLGAKDSTRTQINKVVRFDKLPGFGDSIEAQCGTSVNVHSSLRDILNQITKPNDVYSFSLASRLYAEERYPILPEYLQCVKELYRGGLEPINFQTAADQARELINSWVESQTNGIIRNVLQPSSVDSQTAMVLVNAIVFKGLWEKAFKDEDTQAMPFRVTEQESKPVQMMYQIGLFRVASMASEKMKILELPFASGTMSMLVLLPDEVSGLEQLESIINFEKLTEWTSSNVMEERKIKVYLPRMKMEEKYNLTSVLMAMGITDVFSSSANLSGISSAESLKISQAVHAAHAEINEAGREVVGSAEAGVDAASVSEEFRADHPFLFCIKHIATNAVLFFGRCVSP
CTL Assay- 3H-thymidine uptake (proliferation assay-cpm) ([2]; dendritic cells treated with 10 mg/ml): 160,000 cpm
